Our source for the TGI values is PubChem BioAssay (NCI).

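1) Cells in 96-well plates. 2) Compound, 48 h, 5 concentrations. 3) Linear interpolation between surrounding doses. 4) Unreached endpoint = highest concentration. TGI: concentration producing complete growth inhibition.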 Where only a bound is given, the exact number is not on record here.

What all share (test): inhibition of tumour cell growth, NCI panel, 48 h
The test system of test [1] is OVCAR-8 ovarian.
The test system of test [2] is DU-145 prostate.
Test [3] concerns HOP-62 NSCLC.
In test [4] the test system is HCT-116 colon.
Test [5] concerns HS 578T breast.
In test [6] the test system is OVCAR-5 ovarian.
Test [7] deals with SN12C renal.
Test [8] has as its system NCI-H226 lung.
The subject of test [9] is ACHN renal.
The test system of test [10] is CCRF-CEM leukemia.

For the compound `CC(=O)NC1C(OCc2ccccc2)OC(CO)C(O)C1OCC(=O)N[C@@H](C)C(=O)N[C@H](CCC(=O)NCCNc1ccc([N+](=O)[O-])c2[nH]c3ccccc3c(=O)c12)C(N)=O` (stereo partly drawn), the TGI is 61.2 µM in [1]; > 100 µM in [2]; > 100 µM in test [3]; > 100 µM in test [4]; > 100 µM in test [5]; > 100 µM in test [6]. For the same compound, the TGI in test [7] was > 100 µM; in test [8], 32.4 µM; in test [9], 61.4 µM; in test [10], > 100 µM.

With `O=C1/C(=C/c2ccccc2)CCCc2ccccc21`, the TGI in [1] is 45.5 µM; in test [2], 54.7 µM; in test [3], 36.3 µM; in test [4], 30.7 µM; in test [5], 40.4 µM; in test [6], 42.2 µM. The TGI turned out to be 33.8 µM in test [7], 36.6 µM in [8], 47 µM in test [9] and 43.6 µM in [10].

As for `C#CC(O)/C=C/C(O)CCCC(O)CC#CC(O)C#CCCCCC(O)/C=C/CCCC(O)/C=C/CCCCCCCCCCCCCC(O)C(O)C#CC(=O)O` (stereo not drawn), the TGI in test [1], in [2], in test [3], in test [4], in [5] and in test [6] was > 25 µM each time. Moreover, the TGI in [7], in [8], in test [9] and in test [10] was > 25 µM each time.

In the case of `C#C[C@]1(O)CC[C@H]2[C@@H]3CCC4=C/C(=N/OC(=O)c5cccc6c(=O)c7ccccc7[nH]c56)CCC4[C@H]3CC[C@@]21CC` (stereo partly drawn), the TGI in test [1], in test [2], in test [3], in test [4], in test [5] and in [6] was > 100 µM each time. The TGI in [7] is > 100 µM; in test [8], > 100 µM; in [9], > 100 µM; in test [10], > 54.1 µM.

As for `COc1ccc2c(c1OC)C(=O)O[C@@H]2[C@H]1c2c(cc3c(c2OC)OCO3)CCN1C`, the TGI in test [1] was > 100 µM; in [2] it was > 100 µM; in test [3], > 100 µM; in [4] it was > 100 µM; in test [5], 67.4 µM; in test [6], > 100 µM. Further, the TGI in [7], in test [8], in [9] and in test [10] was > 100 µM each time.

In the case of `O=P1(Cc2ccccc2)c2ccccc2-c2ccccc21`, the TGI in [1] is 36.7 µM; in test [2], > 100 µM; in [3] it was > 52.6 µM; in [4] it was 50.9 µM; in [5] it was > 72 µM; in test [6], 54.7 µM. Besides, the TGI in test [7] was > 78.8 µM; in test [8], 31.2 µM; in test [9], 52.1 µM; in test [10], > 100 µM.

With `O=C1C(Cl)=C(NCCF)C(=O)c2ncccc21`, the TGI came to 4.55 µM in test [1]; 2.99 µM in [2]; 4.39 µM in test [3]; 3.51 µM in test [4]; 4 µM in [5]; 3.29 µM in test [6]. For the same compound, the TGI worked out at 3.35 µM in [7], 3.99 µM in test [8], 5.22 µM in [9] and 0.806 µM in test [10].

For `O=C1NC(=Nc2ccccc2Cl)N/C1=C\c1ccc(Cl)cc1Cl`, the TGI in test [1], in test [2], in [3], in test [4], in test [5] and in test [6] was > 100 µM in each case. For the same compound, the TGI is 73.6 µM in test [7], 57.6 µM in test [8], > 100 µM in test [9] and > 100 µM in [10].

Regarding `COc1ccc2oc(C(=O)N3CC(CCl)c4ccc(N)cc43)cc2c1` (stereo not drawn), the TGI in test [1] was 1.51 µM; in [2] it was 1.62 µM; in test [3], > 100 µM; in [4] it was 0.576 µM; in test [5] it was 3.53 µM; in test [6] it was > 41 µM. Besides, the TGI in test [7] is 8.5 µM; in test [8], 14.1 µM; in test [10], 9.17 µM.

In the case of `Cc1cc(N(CCC#N)CCC#N)ccc1/C(N=Nc1ccc([N+](=O)[O-])cc1)=N\NC(=O)c1ccccc1`, the TGI in test [1] is > 100 µM; in test [2], > 100 µM; in test [3], > 100 µM; in [4], > 100 µM; in test [5], 64.5 µM; in test [6], > 100 µM. Besides, the TGI in test [7], in test [8], in test [9] and in test [10] was > 100 µM in each case.

For `COCOc1cc(OC)ccc1C/C(=N/O)C(=O)OC`, the TGI in test [1], in test [2], in test [3], in test [4], in [5] and in [6] was > 100 µM throughout. Also, the TGI in test [7], in test [8], in test [9] and in test [10] was > 100 µM in each case.

With `O=c1[nH]c(=O)n([C@@H]2O[C@H](CO)[C@@H](O)[C@@H]2F)cc1I`, the TGI in test [1], in [2], in [3], in test [4], in test [5] and in [6] was > 100 µM each time. For the same compound, the TGI in [7] was > 100 µM; in test [8], > 100 µM; in [9] it was > 100 µM; in test [10], 66.8 µM.

Turning to `CCOC(=O)/C=C(/C(=O)OCC)n1ccc(=O)n(Cc2cnnn2CCCCOC(C)=O)c1=O`, the TGI in test [1], in test [2], in [3], in [4], in [5] and in test [6] was > 100 µM in each case. For the same compound, the TGI in [7] was > 100 µM; in [8], > 100 µM; in [9], > 100 µM; in [10] it was 30.9 µM.

For `CCOC1CCN(C(=O)c2ccccc2)O1` (stereo not drawn), the TGI in test [1], in test [2], in [3], in test [4], in test [5] and in test [6] was > 10 µM throughout. For the same compound, the TGI in [7], in [8], in test [9] and in test [10] was > 10 µM each time.

As to `CNC(=S)/C(C#N)=C(\N)N1CCCC1`, the TGI in test [1], in [2], in test [3], in test [4], in test [5] and in test [6] was > 100 µM throughout. Further, the TGI in test [7], in test [8], in test [9] and in test [10] was > 100 µM each time.

On to `N#Cc1c(-c2ccc([N+](=O)[O-])cc2)cc(-c2ccc(Nc3ccnc4cc(Cl)ccc34)cc2)nc1N`, for which the TGI was > 23.3 µM in test [1]; 33.2 µM in test [2]; 29.7 µM in [3]; 14.7 µM in [4]; 29.9 µM in [5]; 45.6 µM in test [6]. Besides, the TGI in test [7] was 17.6 µM; in test [8] it was > 95.2 µM; in test [9], > 72.6 µM; in test [10], 3.8 µM.

On to `COc1cccc2cc(C(=O)NC34CC5CC(CC(C5)C3)C4)c(=N)oc12`, for which the TGI in test [1] was > 50.6 µM; in test [2], > 100 µM; in test [3] it was > 100 µM; in test [4], > 100 µM; in [5], > 96.7 µM; in test [6] it was > 100 µM. In addition, the TGI is > 100 µM in test [7], > 100 µM in [8], > 100 µM in test [9] and > 65.2 µM in test [10].

Consider `C=CC[C@]1(C2=NC(C)(C)CO2)c2ccccc2-c2ccccc2[C@H]1C(C)=O`, for which the TGI in test [1] is > 52.8 µM; in [2] it was 29.6 µM; in test [3], 32.7 µM; in test [4] it was 20.2 µM; in test [5], 25.1 µM; in test [6], 51 µM. Also, the TGI in test [7] is 30.8 µM; in test [8], 30 µM; in test [9], > 45.9 µM; in [10], 37.2 µM.

Take `[N-]=[N+]=Nc1ccc2c(c1)Sc1ccccc1N2CCCCN1CCN(C(=O)CCNC(=O)Cc2ccc(C(=O)c3ccccc3)cc2)CC1`: the TGI is > 100 µM in test [1]; > 100 µM in test [2]; > 100 µM in [3]; 18.9 µM in test [4]; > 100 µM in [5]; 51.4 µM in test [6]. Also, the TGI in [7] is > 33 µM; in test [8] it was > 100 µM; in test [9] it was > 60.5 µM; in [10] it was 8.26 µM.

On to `CCOC(=O)C1(C(=O)OCC)C=C(c2ccccc2)N(C2OC(COC(C)=O)C(OC(C)=O)C(OC(C)=O)C2OC(C)=O)C1=S` (stereo not drawn), for which the TGI in test [1], in test [2], in [3], in [4], in test [5] and in test [6] was > 100 µM throughout. The TGI in test [7], in test [8] and in test [10] was > 100 µM each time.

`Cc1ccc(S(=O)(=O)NC(=O)NC(CCC(N)=O)C(=O)O)cc1` (stereo not drawn): the TGI in [1], in [2], in test [3], in [4], in [5] and in [6] was > 100 µM each time. Besides, the TGI in test [7], in test [9] and in test [10] was > 100 µM throughout.

On to `Cc1cc(C)nc(NS(=O)(=O)c2ccc(NC(=O)c3cc([N+](=O)[O-])cc([N+](=O)[O-])c3)cc2)n1`, for which the TGI in test [1], in test [2], in [3], in test [4], in [5] and in [7] was > 100 µM throughout. Further, the TGI in test [8] and in test [10] was > 100 µM each time.

Regarding `C=CCCC(=O)C(=[N+]=[N-])C(=O)CCC(=O)c1ccccc1`, the TGI in [1], in test [2], in test [3], in test [5], in [6] and in test [7] was > 10 µM each time. The TGI in test [8] and in test [9] was > 10 µM each time.

With `C=CCN(CCN(CC=C)S(=O)(=O)c1ccc(C)cc1)S(=O)(=O)c1ccc(C)cc1`, the TGI in [1], in [2], in [4], in [5], in test [7] and in test [8] was > 100 µM in each case. The TGI in test [9] and in test [10] was > 100 µM each time.

As for `O=c1[nH]nc(-c2ccc(F)cc2)cc1-c1ccccc1`, the TGI in test [1], in [2], in test [4], in test [5], in [6] and in test [7] was > 100 µM in each case. The TGI in test [8], in [9] and in test [10] was > 100 µM in each case.

With `C=C(C)C(=O)OC1C[C@H](COC(C)=O)C2CC=C(CO)C2C2OC(=O)C(=C)[C@H]12` (stereo partly drawn), the TGI in [1] is > 100 µM; in test [2] it was > 100 µM; in [3] it was > 100 µM; in [4], 38.2 µM; in test [5] it was > 100 µM; in test [6] it was > 100 µM. In addition, the TGI in test [8] is > 100 µM; in test [9] it was > 100 µM; in test [10], 31.5 µM.

`CC(=O)n1nc(-c2ccc3ccccc3c2)nc1C`: the TGI in [1], in [2], in test [3], in test [4], in [5] and in test [6] was > 100 µM throughout. For the same compound, the TGI in test [7], in test [9] and in [10] was > 100 µM each time.
